In patent publication US20240287154A1, “MC3R AGONIST PEPTIDES” (The Regents of the University of Michigan, priority 2021, published 2024):
Non-standard residues stand in square brackets, D forms with d. Residues, ends and D or L forms follow the SMILES beside them. Phe(4-Br) = N[C@@H](Cc1ccc(Br)cc1)C(=O)O; NMeY = CN[C@@H](Cc1ccc(O)cc1)C(=O)O; Nle = CCCC[C@H](N)C(=O)O; dAbu = CC[C@@H](N)C(=O)O

Key:
[1] = target: T1, human MC3R (Homo sapiens, UniProt P41968); assay: Intracellular cAMP levels in live cells, MC3R agonist activity; assay type: cell-based; details: cAMP split-luciferase reporter cell line stably expressing human MC3R; direct agonist effect, measurement window 1
T1 construct: expressed in transfected cells
T1 sequence (P41968 whole entry): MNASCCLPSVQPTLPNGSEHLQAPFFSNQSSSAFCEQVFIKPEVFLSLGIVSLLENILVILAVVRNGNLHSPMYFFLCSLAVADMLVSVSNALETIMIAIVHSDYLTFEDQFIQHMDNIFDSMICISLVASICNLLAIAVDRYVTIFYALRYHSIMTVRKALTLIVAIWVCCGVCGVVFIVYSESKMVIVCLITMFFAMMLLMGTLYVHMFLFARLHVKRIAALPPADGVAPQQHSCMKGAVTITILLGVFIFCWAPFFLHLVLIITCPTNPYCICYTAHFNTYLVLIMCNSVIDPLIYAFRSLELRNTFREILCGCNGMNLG
Protocol: The stable cell lines were grown and maintained in selection media consisting of Dulbecco's modified Eagle media (DMEM) with 4.5 g/l D-glucose, and 4 mM L-glutamine (Thermo Fisher Scientific, Waltham, MA), supplemented with 10% fetal bovine serum, 100 units/ml penicillin, 100 μg/ml streptomycin, 2.5 μg/ml amphotericin B, 200 μg/ml hygromycin B (for positive selection of the GScAMP22f luciferase reporter), and Geneticin™ (G418) 700 μg/ml (for MC3R or MC4R selection). Actual serum concentration during the assay is estimated to be about 1%. Cell line identity is routinely verified by qPCR and MC3R- and MC4R-specific oligonucleotides.
The assay for the determination of the CAMP response in live cells was described previously. […] Ccells were seeded at a density of 20,000 cells per well using 384-well poly-D lysine-coated, clear bottom, and black-wall assay plates (Corning Inc. Corning, NJ). Cells were allowed to attach to the plates for 18 to 24 h after which growth media was removed and 20 ul of 4% D-luciferin (Promega) in CO2 independent, serum-free medium (Thermo Fisher Scientific) was added to each well. […] Intracellular cAMP levels were measured using an FDSS 7000EX Functional Drug Screening System (Hamamatsu Photonics, Hamamatsu, Japan) in the Center for Chemical Genomics at the Life Sciences Institute. This instrument allowed the in-line addition of test-peptides and receptor agonists while simultaneously acquiring the luminescence signal from live cells. […] A submaximal forskolin (20 μM) concentration was also included to serve as a normalization reference to account for cell number variations and differences in assay transducer efficiency between cell lines.
With this set up it was possible to evaluate the direct agonist effect of the test-peptides on the MC3R and MC4R cell lines during measurement window 1, while the antagonist profile in the presence of EC90 α-MSH was determined on measurement window 2. […] EC50 or IC50 potency values were determined by non-linear regression by fitting the data to a sigmoid four-parameter variable slope model using the GraphPad Prism version 8.4 software package (San Diego CA).

[2] = target: human MC4R (Homo sapiens, UniProt P32245); assay: Intracellular cAMP levels in live cells, MC3R selectivity relative to MC4R; assay type: cell-based; details: cAMP assays in human MC3R and human MC4R stable cell lines
Chain of human MC4R (P32245 whole entry): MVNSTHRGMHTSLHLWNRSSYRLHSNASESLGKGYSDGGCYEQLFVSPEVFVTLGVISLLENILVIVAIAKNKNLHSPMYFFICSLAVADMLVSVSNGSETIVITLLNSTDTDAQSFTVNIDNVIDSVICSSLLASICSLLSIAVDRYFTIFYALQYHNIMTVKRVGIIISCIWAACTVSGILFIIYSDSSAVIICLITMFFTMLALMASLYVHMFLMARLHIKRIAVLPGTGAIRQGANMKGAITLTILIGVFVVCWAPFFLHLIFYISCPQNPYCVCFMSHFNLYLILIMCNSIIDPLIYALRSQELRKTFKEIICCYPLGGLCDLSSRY

CC(C)[C@H](NC(=O)[C@@H](N)Cc1ccc(O)cc1)C(=O)N[C@@H](CCC(=O)O)C(=O)N[C@H](C)C(=O)N[C@@H](Cc1c[nH]cn1)C(=O)N[C@H](Cc1ccccc1)C(=O)N[C@@H](CCCNC(=N)N)C(=O)N[C@H](Cc1c[nH]c2ccccc12)C(=O)N[C@@H](CC(=O)O)C(=O)N[C@@H](CCCNC(=N)N)C(=O)N[C@@H](Cc1ccccc1)C(=O)NCC(=O)O [CTX-1106, Tyr-Val-Glu-D-Ala-His-D-Phe-Arg-D-Trp-Asp-Arg-Phe-Gly] (H-YVE[dA]H[dF]R[dW]DRFG-OH)
EC50 [1]: 5.8 nM
MC3R selectivity (relative to MC4R) [2]: 120

CCCC[C@H](NC(=O)[C@@H](NC(=O)[C@@H](N)Cc1ccc(O)cc1)C(C)C)C(=O)N[C@H](C)C(=O)N[C@@H](Cc1c[nH]cn1)C(=O)N[C@H](Cc1ccccc1)C(=O)N[C@@H](CCCNC(=N)N)C(=O)N[C@H](Cc1c[nH]c2ccccc12)C(=O)N[C@@H](CC(=O)O)C(N)=O [CTX-1109, Tyr-Val-Nle-D-Ala-His-D-Phe-Arg-D-Trp-Asp] (H-YV[Nle][dA]H[dF]R[dW]D-NH2)
EC50 [1]: 13.1 nM
MC3R selectivity (relative to MC4R) [2]: 10.6

CCCC[C@H](NC(=O)[C@@H](NC(=O)[C@@H](N)Cc1ccc(O)cc1)C(C)C)C(=O)N[C@H](C)C(=O)N[C@@H](Cc1c[nH]cn1)C(=O)N[C@@H](Cc1ccccc1)C(=O)N[C@@H](CCCNC(=N)N)C(=O)N[C@H](Cc1c[nH]c2ccccc12)C(=O)N[C@@H](CC(=O)O)C(=O)N[C@@H](CCCNC(=N)N)C(=O)N[C@@H](Cc1ccccc1)C(=O)NCC(N)=O [CTX-1118, Tyr-Val-Nle-D-Ala-His-Phe-Arg-D-Trp-Asp-Arg-Phe-Gly] (H-YV[Nle][dA]HFR[dW]DRFG-NH2)
EC50 [1]: 1.2 nM
MC3R selectivity (relative to MC4R) [2]: 59

CCCC[C@H](NC(=O)[C@@H](NC(=O)[C@@H](N)Cc1ccc(O)cc1)C(C)C)C(=O)N[C@H](C)C(=O)N[C@@H](Cc1c[nH]cn1)C(=O)N[C@@H](Cc1ccccc1)C(=O)N[C@@H](CCCNC(=N)N)C(=O)N[C@H](Cc1c[nH]c2ccccc12)C(=O)N[C@@H](CC(=O)O)C(=O)N[C@@H](CCCNC(=N)N)C(=O)N[C@@H](Cc1ccccc1)C(N)=O [CTX-1119, Tyr-Val-Nle-D-Ala-His-Phe-Arg-D-Trp-Asp-Arg-Phe] (H-YV[Nle][dA]HFR[dW]DRF-NH2)
EC50 [1]: 1.9 nM
MC3R selectivity (relative to MC4R) [2]: 24

CCCC[C@H](NC(C)=O)C(=O)N[C@H](C)C(=O)N[C@@H](Cc1c[nH]cn1)C(=O)N[C@@H](Cc1ccccc1)C(=O)N[C@@H](CCCNC(=N)N)C(=O)N[C@H](Cc1c[nH]c2ccccc12)C(=O)N[C@@H](CC(=O)O)C(=O)N[C@@H](CCCNC(=N)N)C(=O)N[C@@H](Cc1ccccc1)C(=O)NCC(=O)O [CTX-1122, Nle-D-Ala-His-Phe-Arg-D-Trp-Asp-Arg-Phe-Gly] (Ac-[Nle][dA]HFR[dW]DRFG-OH)
EC50 [1]: 1.2 nM
MC3R selectivity (relative to MC4R) [2]: 7,703

CCCC[C@H](NC(=O)[C@@H](NC(=O)[C@H](Cc1ccc(O)cc1)NC)C(C)C)C(=O)N[C@H](C)C(=O)N[C@@H](Cc1c[nH]cn1)C(=O)N[C@@H](Cc1ccccc1)C(=O)N[C@@H](CCCNC(=N)N)C(=O)N[C@H](Cc1c[nH]c2ccccc12)C(=O)N[C@@H](CC(=O)O)C(=O)N[C@@H](CCCNC(=N)N)C(=O)N[C@@H](Cc1ccccc1)C(=O)NCC(=O)O [CTX-1124, NMe-Tyr-Val-Nle-D-Ala-His-Phe-Arg-D-Trp-Asp-Arg-Phe-Gly] (H-[NMeY]V[Nle][dA]HFR[dW]DRFG-OH)
EC50 [1]: 1.7 nM
MC3R selectivity (relative to MC4R) [2]: 69

CCCC[C@H](NC(=O)[C@@H](NC(=O)[C@@H](N)Cc1ccc(O)cc1)C(C)C)C(=O)N[C@@H](C)C(=O)N[C@@H](Cc1c[nH]cn1)C(=O)N[C@@H](Cc1ccccc1)C(=O)N[C@@H](CCCNC(=N)N)C(=O)N[C@H](Cc1c[nH]c2ccccc12)C(=O)N[C@@H](CC(=O)O)C(N)=O [CTX-1129, Tyr-Val-Nle-Ala-His-Phe-Arg-D-Trp-Asp] (H-YV[Nle]AHFR[dW]D-NH2)
EC50 [1]: 1.2 nM
MC3R selectivity (relative to MC4R) [2]: 7.5

CCCC[C@H](NC(=O)[C@@H](NC(=O)[C@@H](N)Cc1ccc(O)cc1)C(C)C)C(=O)N[C@H](CC)C(=O)N[C@@H](Cc1c[nH]cn1)C(=O)N[C@@H](Cc1ccccc1)C(=O)N[C@@H](CCCNC(=N)N)C(=O)N[C@H](Cc1c[nH]c2ccccc12)C(=O)N[C@@H](CC(=O)O)C(N)=O [CTX-1131, Tyr-Val-Nle-D-Abu-His-Phe-Arg-D-Trp-Asp] (H-YV[Nle][dAbu]HFR[dW]D-NH2)
EC50 [1]: 6.6 nM
MC3R selectivity (relative to MC4R) [2]: 65

CCCC[C@H](NC(=O)[C@@H](NC(=O)[C@@H](N)Cc1ccc(O)cc1)C(C)C)C(=O)N[C@H](Cc1ccccc1)C(=O)N[C@@H](Cc1c[nH]cn1)C(=O)N[C@@H](Cc1ccccc1)C(=O)N[C@@H](CCCNC(=N)N)C(=O)N[C@H](Cc1c[nH]c2ccccc12)C(=O)N[C@@H](CC(=O)O)C(N)=O [CTX-1132, Tyr-Val-Nle-D-Phe-His-Phe-Arg-D-Trp-Asp] (H-YV[Nle][dF]HFR[dW]D-NH2)
EC50 [1]: 3.9 nM
MC3R selectivity (relative to MC4R) [2]: 6.8

CCCC[C@H](NC(=O)[C@@H](NC(=O)[C@@H](N)Cc1ccc(O)cc1)C(C)C)C(=O)N[C@H](Cc1ccccc1)C(=O)N[C@@H](Cc1c[nH]cn1)C(=O)N[C@@H](Cc1ccccc1)C(=O)N[C@@H](CCCNC(=N)N)C(=O)N[C@H](Cc1c[nH]c2ccccc12)C(=O)N[C@@H](CC(=O)O)C(=O)N[C@@H](CCCNC(=N)N)C(=O)N[C@@H](Cc1ccccc1)C(=O)NCC(=O)O [CTX-1136, Tyr-Val-Nle-D-Phe-His-Phe-Arg-D-Trp-Asp-Arg-Phe-Gly] (H-YV[Nle][dF]HFR[dW]DRFG-OH)
EC50 [1]: 1.9 nM
MC3R selectivity (relative to MC4R) [2]: 37

CCCC[C@H](NC(C)=O)C(=O)N[C@H](CC)C(=O)N[C@@H](Cc1c[nH]cn1)C(=O)N[C@@H](Cc1ccccc1)C(=O)N[C@@H](CCCNC(=N)N)C(=O)N[C@H](Cc1c[nH]c2ccccc12)C(=O)N[C@@H](CC(=O)O)C(=O)N[C@@H](CCCNC(=N)N)C(=O)N[C@@H](Cc1ccccc1)C(=O)NCC(=O)O [CTX-1144, Nle-D-Abu-His-Phe-Arg-D-Trp-Asp-Arg-Phe-Gly] (Ac-[Nle][dAbu]HFR[dW]DRFG-OH)
EC50 [1]: 6.6 nM
MC3R selectivity (relative to MC4R) [2]: 2,633

CCCC[C@H](NC(C)=O)C(=O)N[C@H](C)C(=O)N[C@@H](Cc1c[nH]cn1)C(=O)N[C@@H](Cc1ccccc1)C(=O)N[C@@H](CCCNC(=N)N)C(=O)N[C@H](Cc1c[nH]c2ccccc12)C(=O)N[C@@H](CC(=O)O)C(=O)N[C@H](CCCNC(=N)N)C(=O)N[C@@H](Cc1ccccc1)C(=O)NCC(=O)O [CTX-1146, Nle-D-Ala-His-Phe-Arg-D-Trp-Asp-D-Arg-Phe-Gly] (Ac-[Nle][dA]HFR[dW]D[dR]FG-OH)
EC50 [1]: 170 nM

CCCC[C@H](NC(=O)CNC(=O)COCCOCCNC(=O)CNC(=O)CCc1ccc(I)cc1)C(=O)N[C@H](C)C(=O)N[C@@H](Cc1c[nH]cn1)C(=O)N[C@@H](Cc1ccccc1)C(=O)N[C@@H](CCCNC(=N)N)C(=O)N[C@H](Cc1c[nH]c2ccccc12)C(=O)N[C@@H](CC(=O)O)C(=O)N[C@@H](CCCNC(=N)N)C(=O)N[C@@H](Cc1ccccc1)C(=O)NCC(=O)O [CTX-1148, Gly-Nle-D-Ala-His-Phe-Arg-D-Trp-Asp-Arg-Phe-Gly]
EC50 [1]: 1.5 nM
MC3R selectivity (relative to MC4R) [2]: 1197

CCCC[C@H](NC(=O)CNC(=O)COCCOCCNC(=O)CNC(=O)CCc1ccc(I)cc1)C(=O)N[C@H](C)C(=O)N[C@@H](Cc1c[nH]cn1)C(=O)N[C@@H](Cc1ccccc1)C(=O)N[C@@H](CCCNC(=N)N)C(=O)N[C@H](Cc1c[nH]c2ccccc12)C(=O)N[C@@H](CC(=O)O)C(=O)N[C@@H](CCCNC(=N)N)C(=O)N[C@H](Cc1ccccc1)C(=O)NCC(=O)O [CTX-1154, Gly-Nle-D-Ala-His-Phe-Arg-D-Trp-Asp-Arg-D-Phe-Gly]
EC50 [1]: 5.8 nM
MC3R selectivity (relative to MC4R) [2]: 1070

CCCC[C@H](NC(C)=O)C(=O)N[C@H](C)C(=O)N[C@@H](Cc1c[nH]cn1)C(=O)N[C@@H](Cc1ccccc1)C(=O)N[C@@H](CCCNC(=N)N)C(=O)N[C@H](Cc1c[nH]c2ccccc12)C(=O)NCC(=O)N[C@@H](CCCCN)C(=O)N1CCC[C@H]1C(=O)N[C@H](C(N)=O)C(C)C [CTX-1164, Nle-D-Ala-His-Phe-Arg-D-Trp-Gly-Lys-Pro-Val] (Ac-[Nle][dA]HFR[dW]GKPV-NH2)
EC50 [1]: 1.5 nM
MC3R selectivity (relative to MC4R) [2]: 83

CCCC[C@H](NC(C)=O)C(=O)N[C@H](C)C(=O)N[C@@H](Cc1c[nH]cn1)C(=O)N[C@@H](Cc1ccc(Br)cc1)C(=O)N[C@@H](CCCNC(=N)N)C(=O)N[C@H](Cc1c[nH]c2ccccc12)C(=O)N[C@@H](CC(=O)O)C(=O)N[C@@H](CCCNC(=N)N)C(=O)N[C@@H](Cc1ccccc1)C(=O)NCC(=O)O [CTX-1165, Nle-D-Ala-His-Phe(4-Br)-Arg-D-Trp-Asp-Arg-Phe-Gly] (Ac-[Nle][dA]H[Phe(4-Br)]R[dW]DRFG-OH)
EC50 [1]: 3 nM
MC3R selectivity (relative to MC4R) [2]: 5598
